# Source: ChEMBL document CHEMBL3045227, “Development of 4-aminoquinoline-1,3,5-triazine conjugates as potent antibacterial agent through facile synthetic route” (2013)
# Legend:
# Type in all cases: functional
# Proteus vulgaris = test: Antibacterial activity against Proteus vulgaris NCIM 2027 assessed as growth inhibition after 24 hr by NCCLS broth dilution method; settings: NCIM 2027, 24 h
# Proteus mirabilis = test: Antibacterial activity against Proteus mirabilis NCIM 2241 assessed as growth inhibition after 24 hr by NCCLS broth dilution method; settings: NCIM 2241, 24 h
# Escherichia coli = test: Antibacterial activity against Escherichia coli NCIM 2065 assessed as growth inhibition after 24 hr by NCCLS broth dilution method; settings: NCIM 2065, 24 h
# Pseudomonas aeruginosa = test: Antibacterial activity against Pseudomonas aeruginosa NCIM 2036 assessed as growth inhibition after 24 hr by NCCLS broth dilution method; settings: NCIM 2036, 24 h
# Bacillus cereus = test: Antibacterial activity against Bacillus cereus NCIM 2156 assessed as growth inhibition after 24 hr by NCCLS broth dilution method; settings: NCIM 2156, 24 h
# Bacillus subtilis = test: Antibacterial activity against Bacillus subtilis NCIM 2063 assessed as growth inhibition after 24 hr by NCCLS broth dilution method; settings: NCIM 2063, 24 h
# Staphylococcus aureus = test: Antibacterial activity against Staphylococcus aureus NCIM 2079 assessed as growth inhibition after 24 hr by NCCLS broth dilution method; settings: NCIM 2079, 24 h
Structure (SMILES),MIC (Proteus vulgaris) [µg/mL],MIC (Proteus mirabilis) [µg/mL],MIC (Escherichia coli) [µg/mL],MIC (Pseudomonas aeruginosa) [µg/mL],MIC (Bacillus cereus) [µg/mL],MIC (Bacillus subtilis) [µg/mL],MIC (Staphylococcus aureus) [µg/mL]
Cc1ccc(Nc2nc(Nc3ccc([N+](=O)[O-])cc3)nc(N3CCN(C(=S)Nc4ccnc5cc(Cl)ccc45)CC3)n2)cc1,12.5,3.12,12.5,6.25,3.12,6.25,12.5
O=[N+]([O-])c1ccc(Nc2nc(N3CCOCC3)nc(N3CCN(C(=S)Nc4ccnc5cc(Cl)ccc45)CC3)n2)cc1,3.12,12.5,6.25,12.5,3.12,6.25,3.12
NNc1nc(Nc2ccc([N+](=O)[O-])cc2)nc(N2CCN(C(=S)Nc3ccnc4cc(Cl)ccc34)CC2)n1.O,12.5,6.25,25,12.5,6.25,6.25,25
NC(=S)NNc1nc(Nc2ccc([N+](=O)[O-])cc2)nc(N2CCN(C(=S)Nc3ccnc4cc(Cl)ccc34)CC2)n1,12.5,12.5,6.25,6.25,3.12,6.25,25
Cc1ccccc1Nc1nc(Nc2ccc([N+](=O)[O-])cc2)nc(N2CCN(C(=S)Nc3ccnc4cc(Cl)ccc34)CC2)n1,25,12.5,6.25,6.25,12.5,12.5,25
O=[N+]([O-])c1ccc(Nc2nc(Nc3ccccc3)nc(N3CCN(C(=S)Nc4ccnc5cc(Cl)ccc45)CC3)n2)cc1,12.5,6.25,12.5,6.25,3.12,12.5,12.5
NC(=O)NNc1nc(Nc2ccc([N+](=O)[O-])cc2)nc(N2CCN(C(=S)Nc3ccnc4cc(Cl)ccc34)CC2)n1,6.25,6.25,12.5,12.5,6.25,3.12,12.5
NCCCNc1nc(Nc2ccc([N+](=O)[O-])cc2)nc(N2CCN(C(=S)Nc3ccnc4cc(Cl)ccc34)CC2)n1,25,12.5,12.5,12.5,12.5,25,25
O=[N+]([O-])c1ccc(Nc2nc(Nc3ccc(O)cc3)nc(N3CCN(C(=S)Nc4ccnc5cc(Cl)ccc45)CC3)n2)cc1,50,50,50,25,25,25,100
CC1COc2c(N3CCN(C)CC3)c(F)cc3c(=O)c(C(=O)O)cn1c23 (stereo not given) [OFLOXACIN],3.12,3.12,3.12,6.25,6.25,3.12,6.25
